Here are results for 24 compounds from patent publication US20240101540A1, “TARGETED PROTEIN DEGRADATION OF PARP14 FOR USE IN THERAPY” (Ribon Therapeutics, Inc., priority 2022, published 2024).

Where a name gives a salt, the structure may show the parent alone.

The target of the experiment is T1, HiBiT tagged PARP14 (Homo sapiens, UniProt Q460N5).
T1 construct: engineered to contain a HiBiT tag on both alleles of the PARP14 gene; endogenous in cells; host or cells: Jurkat cells stably transfected with LgBiT (Promega), PARP14 locus edited by CRISPR/Cas9
T1 sequence (Q460N5 whole entry): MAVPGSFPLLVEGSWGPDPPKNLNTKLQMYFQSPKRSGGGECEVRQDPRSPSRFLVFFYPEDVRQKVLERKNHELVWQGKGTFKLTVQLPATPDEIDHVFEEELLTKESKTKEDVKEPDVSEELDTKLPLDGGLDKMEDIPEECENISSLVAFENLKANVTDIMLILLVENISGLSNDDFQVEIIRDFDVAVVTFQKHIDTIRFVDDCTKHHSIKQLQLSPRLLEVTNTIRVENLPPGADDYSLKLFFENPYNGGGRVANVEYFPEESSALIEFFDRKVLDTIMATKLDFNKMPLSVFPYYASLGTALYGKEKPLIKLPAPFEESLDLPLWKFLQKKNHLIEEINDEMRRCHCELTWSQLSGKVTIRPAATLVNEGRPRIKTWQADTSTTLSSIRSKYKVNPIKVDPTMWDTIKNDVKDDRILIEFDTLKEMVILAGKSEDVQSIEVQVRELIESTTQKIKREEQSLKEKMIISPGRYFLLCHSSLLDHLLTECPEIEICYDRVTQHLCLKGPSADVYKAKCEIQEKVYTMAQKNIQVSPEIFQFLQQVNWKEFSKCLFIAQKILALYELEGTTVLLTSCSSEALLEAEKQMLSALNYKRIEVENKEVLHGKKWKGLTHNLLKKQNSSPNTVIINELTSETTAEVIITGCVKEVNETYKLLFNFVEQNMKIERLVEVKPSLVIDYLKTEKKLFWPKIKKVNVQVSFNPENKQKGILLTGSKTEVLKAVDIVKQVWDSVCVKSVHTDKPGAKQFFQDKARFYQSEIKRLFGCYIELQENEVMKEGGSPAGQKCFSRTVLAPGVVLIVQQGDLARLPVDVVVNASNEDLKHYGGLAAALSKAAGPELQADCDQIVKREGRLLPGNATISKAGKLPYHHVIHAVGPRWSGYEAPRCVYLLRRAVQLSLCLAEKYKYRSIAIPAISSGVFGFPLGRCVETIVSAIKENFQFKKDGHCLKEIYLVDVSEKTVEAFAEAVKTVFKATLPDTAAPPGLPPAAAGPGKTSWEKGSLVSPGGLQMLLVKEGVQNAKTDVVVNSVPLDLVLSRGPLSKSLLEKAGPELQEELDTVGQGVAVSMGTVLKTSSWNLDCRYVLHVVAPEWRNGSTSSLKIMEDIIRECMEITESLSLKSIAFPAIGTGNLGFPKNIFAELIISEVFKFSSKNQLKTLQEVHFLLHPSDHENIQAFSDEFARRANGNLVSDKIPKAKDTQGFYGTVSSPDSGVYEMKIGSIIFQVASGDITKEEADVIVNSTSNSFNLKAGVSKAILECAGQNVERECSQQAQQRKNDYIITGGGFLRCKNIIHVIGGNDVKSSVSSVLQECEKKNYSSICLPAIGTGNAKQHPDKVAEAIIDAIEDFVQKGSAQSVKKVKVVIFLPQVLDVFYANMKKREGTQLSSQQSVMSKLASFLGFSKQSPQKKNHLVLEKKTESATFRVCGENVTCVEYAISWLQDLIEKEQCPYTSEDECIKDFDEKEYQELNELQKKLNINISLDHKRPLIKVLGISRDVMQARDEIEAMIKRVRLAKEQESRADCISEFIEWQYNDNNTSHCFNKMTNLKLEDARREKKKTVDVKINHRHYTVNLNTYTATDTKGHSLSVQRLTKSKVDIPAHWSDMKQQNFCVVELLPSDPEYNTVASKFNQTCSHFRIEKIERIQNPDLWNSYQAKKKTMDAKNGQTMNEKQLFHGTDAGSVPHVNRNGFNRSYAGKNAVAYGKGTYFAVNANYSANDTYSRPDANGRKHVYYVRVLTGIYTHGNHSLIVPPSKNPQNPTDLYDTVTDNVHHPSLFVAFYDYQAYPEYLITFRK
The experiment is described as follows: HiBiT assay for the degradation of PARP14 (HiBiT tagged PARP14 in LgBiT expressing Jurkat cells, 2 or 24 hours). Type of experiment: cell-based. The settings on record: Assay B (Example B): HiBiT tagged PARP14 degradation in LgBiT expressing Jurkat cells, read-out: DC50. On the procedure:
Jurkat cells stably transfected with LgBiT (Promega) were engineered to contain a HiBiT tag on both alleles of the PARP14 gene (Genbank Accession Number: NM_017554) via CRISPR/Cas9 editing. The HiBiT tag is an 11 amino acid tag created by Promega that associates with LgBiT protein to form the NanoLuc® tag on the C-terminus of PARP14. Clones were isolated and confirmed for the HiBiT tag via Sanger sequencing.
Degradation of PARP14 protein was assessed by measuring the luminescence of the HiBiT tag associating with the LgBiT protein as a proxy for the PARP14 protein.
Jurkat cells were diluted to 250,000 cells per mL and then added to assay plate (Corning 3574) using a Multidrop (Thermo Fisher) to add 20 μL per well of the 384 well plate, resulting in 5,000 cells per well. 20 nL of a dose response curve diluted in DMSO of each test compound was added to the cell plate using a Mosquito (TTP Labtech) and the plate was incubated at 37° C. for 2 or 24 hours. Assay plate was brought to room temperature then 5 μL per well of Live Cell Substrate (Promega) was added to the plate. Luminescence was measured on an Envision (Perkin Elmer).
The average DMSO was calculated from 32 wells containing 0.1% DMSO only in columns 12 and 24 of the assay plate. The % of DMSO values were calculated as described below: […]
The % of DMSO values were plotted as a function of compound concentration and the following 4-parameter fit was applied to derive the DC50 values:
where top, bottom, and Hill Coefficient are allowed to float. Y is the % of DMSO and X is the compound concentration.
DC50 data for the Example compounds is provided below in Table 2 (“+” is ≤0.03 μM; “++” is ≥0.03 μM).

Regarding `Cn1nc(N2CCC(=O)NC2=O)c2cccc(N3CCN(CCN4CCC(COc5cc(F)c6c(=O)[nH]c(CSC7CCOCC7)nc6c5)CC4)CC3)c21` [Example 101, 1-(7-(4-(2-(4-(((5-fluoro-4-oxo-2-(((tetrahydro-2H-pyran-4-yl)thio)methyl)-3,4-dihydroquinazolin-7-yl)oxy)methyl)piperidin-1-yl)ethyl)piperazin-1-yl)-1-methyl-1H-indazol-3-yl)dihydropyrimidine-2,4(1H,3H)-dione], the DC50 is under 30 nM. The figure for `Cn1nc(C2CCC(=O)NC2=O)c2ccc(N3CCN(CCN4CCC(COc5cc(F)c6c(=O)[nH]c(CSC7CCOCC7)nc6c5)CC4)CC3)cc21` (stereo not drawn) [Example 102, 3-(6-(4-(2-(4-(((5-Fluoro-4-oxo-2-(((tetrahydro-2H-pyran-4-yl)thio)methyl)-3,4-dihydroquinazolin-7-yl)oxy)methyl)piperidin-1-yl)ethyl)piperazin-1-yl)-1-methyl-1H-indazol-3-yl)piperidine-2,6-dione] is under 30 nM; for `O=C1CCC(N2C(=O)c3cccc4c(N5CCN(CCN6CCC(COc7cc(F)c8c(=O)[nH]c(CSC9CCOCC9)nc8c7)CC6)CC5)ccc2c34)C(=O)N1` (stereo not drawn) [Example 103, 3-(6-(4-(2-(4-(((5-fluoro-4-oxo-2-(((tetrahydro-2H-pyran-4-yl)thio)methyl)-3,4-dihydroquinazolin-7-yl)oxy)methyl)piperidin-1-yl)ethyl)piperazin-1-yl)-2-oxobenzo[cd]indol-1(2H)-yl)piperidine-2,6-dione] it is under 30 nM; for `O=C1CCC(Nc2ccc(F)c(N3CCN(CCN4CCC(COc5cc(F)c6c(=O)[nH]c(CSC7CCOCC7)nc6c5)CC4)CC3)c2)C(=O)N1` (stereo not drawn) [Example 104, 3-((4-fluoro-3-(4-(2-(4-(((5-fluoro-4-oxo-2-(((tetrahydro-2H-pyran-4-yl)thio)methyl)-3,4-dihydroquinazolin-7-yl)oxy)methyl)piperidin-1-yl)ethyl)piperazin-1-yl)phenyl)amino)piperidine-2,6-dione] it is under 30 nM. For the compound `O=C1CCC(Nc2ccc(N3CCN(CCN4CCC(COc5cc(F)c6c(=O)[nH]c(CC7CC7)nc6c5)CC4)CC3)c(F)c2)C(=O)N1` (stereo not drawn) [Example 105, 3-((4-(4-(2-(4-(((2-(cyclopropylmethyl)-5-fluoro-4-oxo-3,4-dihydroquinazolin-7-yl)oxy)methyl)piperidin-1-yl)ethyl)piperazin-1-yl)-3-fluorophenyl)amino)piperidine-2,6-dione formate], the DC50 is under 30 nM. Regarding `O=C1CCC(Nc2ccc(N3CCN(CCN4CCC(COc5cc(F)c6c(=O)[nH]c(CC7CCC7)nc6c5)CC4)CC3)c(F)c2)C(=O)N1` (stereo not drawn) [Example 106, 3-((4-(4-(2-(4-(((2-(cyclobutylmethyl)-5-fluoro-4-oxo-3,4-dihydroquinazolin-7-yl)oxy)methyl)piperidin-1-yl)ethyl)piperazin-1-yl)-3-fluorophenyl)amino)piperidine-2,6-dione formate], the DC50 is under 30 nM. For the compound `O=C1CCC(Nc2ccc(N3CCN(CCN4CCC(COc5cc(F)c6c(=O)[nH]c(CC7CCCC7)nc6c5)CC4)CC3)c(F)c2)C(=O)N1` (stereo not drawn) [Example 107, 3-((4-(4-(2-(4-(((2-(cyclopentylmethyl)-5-fluoro-4-oxo-3,4-dihydroquinazolin-7-yl)oxy)methyl)piperidin-1-yl)ethyl)piperazin-1-yl)-3-fluorophenyl)amino)piperidine-2,6-dione formate], the DC50 is under 30 nM. Consider `O=C1CCC(Nc2cnc(N3CCN(CCN4CCC(COc5cc(F)c6c(=O)[nH]c(CSC7CCOCC7)nc6c5)CC4)CC3)c(F)c2)C(=O)N1` (stereo not drawn) [Example 108, 3-((5-fluoro-6-(4-(2-(4-(((5-fluoro-4-oxo-2-(((tetrahydro-2H-pyran-4-yl)thio)methyl)-3,4-dihydroquinazolin-7-yl)oxy)methyl)piperidin-1-yl)ethyl)piperazin-1-yl)pyridin-3-yl)amino)piperidine-2,6-dione], for which the DC50 was under 30 nM.

With `O=C1CCC(Nc2ccc(OC3CC(CN4CCC(COc5cc(F)c6c(=O)[nH]c(CCC7CCOCC7)nc6c5)CC4)C3)cc2)C(=O)N1` (stereo not drawn) [Example 110], the DC50 is under 30 nM. To `O=C1CCC(Nc2ccc(OC3CCC(CN4CCC(COc5cc(F)c6c(=O)[nH]c(CSC7CCOCC7)nc6c5)CC4)CC3)cc2)C(=O)N1` (stereo not drawn) [Example 111] belongs under 30 nM. Take `O=C1CCC(Nc2ccc(N3CCC(N4CCC(COc5cc(F)c6c(=O)[nH]c(CSC7CCOCC7)nc6c5)CC4)CC3)cc2)C(=O)N1` (stereo not drawn) [Example 112, 3-((4-(4-(((5-fluoro-4-oxo-2-(((tetrahydro-2H-pyran-4-yl)thio)methyl)-3,4-dihydroquinazolin-7-yl)oxy)methyl)-[1,4′-bipiperidin]-1′-yl)phenyl)amino)piperidine-2,6-dione]: the DC50 is under 30 nM.

For `O=C1CCC(Nc2ccc(N3CCC(N4CCC(COc5cc(F)c6c(=O)[nH]c(CSC7CCOCC7)nc6c5)CC4)CC3)c(F)c2)C(=O)N1` (stereo not drawn) [Example 113], the DC50 was under 30 nM. The figure for `O=C1CCC(Nc2ccc(N3CCC(N4CCC(COc5cc(F)c6c(=O)[nH]c(CCC7CCOCC7)nc6c5)CC4)CC3)cc2)C(=O)N1` (stereo not drawn) [Example 114] is under 30 nM; for `O=C1CCC(Nc2ccc(N3CCC(N4CCC(COc5cc(F)c6c(=O)[nH]c(COC7CCOCC7)nc6c5)CC4)CC3)cc2)C(=O)N1` (stereo not drawn) [Example 115] it is under 30 nM; for `O=C1CCC(Nc2ccc(N3CCC(N4CC(N5CCC(COc6cc(F)c7c(=O)[nH]c(CSC8CCOCC8)nc7c6)CC5)C4)CC3)c(F)c2)C(=O)N1` (stereo not drawn) [Example 116, 3-((3-fluoro-4-(4-(3-(4-(((5-fluoro-4-oxo-2-(((tetrahydro-2H-pyran-4-yl)thio)methyl)-3,4-dihydroquinazolin-7-yl)oxy)methyl)piperidin-1-yl)azetidin-1-yl)piperidin-1-yl)phenyl)amino)piperidine-2,6-dione] it is under 30 nM. Consider `O=C1CCC(Nc2ccc(N3CCC(N4CCC(COc5cc(F)c6c(=O)[nH]c(CCC7CCOCC7)nc6c5)CC4)CC3)c(F)c2)C(=O)N1` (stereo not drawn) [Example 117, 3-((3-fluoro-4-(4-(((5-fluoro-4-oxo-2-(2-(tetrahydro-2H-pyran-4-yl)ethyl)-3,4-dihydroquinazolin-7-yl)oxy)methyl)-[1,4′-bipiperidin]-11′-yl)phenyl)amino)piperidine-2,6-dione], for which the 50% degradation concentration (DC50) is under 30 nM. Consider `O=C1CCC(Nc2ccc(N3CCC(CCN4CCC(COc5cc(F)c6c(=O)[nH]c(CSC7CCOCC7)nc6c5)CC4)CC3)cc2)C(=O)N1` (stereo not drawn) [Example 118, 3-((4-(4-(2-(4-(((5-fluoro-4-oxo-2-(((tetrahydro-2H-pyran-4-yl)thio)methyl)-3,4-dihydroquinazolin-7-yl)oxy)methyl)piperidin-1-yl)ethyl)piperidin-1-yl)phenyl)amino)piperidine-2,6-dione], for which the DC50 is under 30 nM. As for `O=C1CCC(Nc2ccc(N3CCN(CCN4CCC(COc5cc(F)c6c(=O)[nH]c(CSC7CCOCC7)nc6c5)CC4)CC3)cn2)C(=O)N1` (stereo not drawn) [Example 119], the DC50 was under 30 nM. With `O=C1CCC(Nc2ccc(OC3CCN(CCN4CCC(COc5cc(F)c6c(=O)[nH]c(CSC7CCOCC7)nc6c5)CC4)CC3)cc2)C(=O)N1` (stereo not drawn) [Example 120, 3-((4-((1-(2-(4-(((5-fluoro-4-oxo-2-(((tetrahydro-2H-pyran-4-yl)thio)methyl)-3,4-dihydroquinazolin-7-yl)oxy)methyl)piperidin-1-yl)ethyl)piperidin-4-yl)oxy)phenyl)amino)piperidine-2,6-dione], the half-maximal degradation concentration (DC50) was under 30 nM.

Turning to `O=C1CCC(Nc2ccc(N3CCC(N4CCN(CCOc5cc(F)c6c(=O)[nH]c(CSC7CCOCC7)nc6c5)CC4)CC3)cc2)C(=O)N1` (stereo not drawn) [Example 125], the DC50 is under 30 nM. With `O=C1CCC(Nc2ccc(N3CCN(C4CCN(CCOc5cc(F)c6c(=O)[nH]c(CSC7CCOCC7)nc6c5)CC4)CC3)c(F)c2)C(=O)N1` (stereo not drawn) [Example 126], the DC50 was under 30 nM. The figure for `O=C1CCC(Nc2ccc(N3CC(N4CCC(CCOc5cc(F)c6c(=O)[nH]c(CSC7CCOCC7)nc6c5)CC4)C3)cc2)C(=O)N1` (stereo not drawn) [Example 127, 3-((4-(3-(4-(2-((5-fluoro-4-oxo-2-(((tetrahydro-2H-pyran-4-yl)thio)methyl)-3,4-dihydroquinazolin-7-yl)oxy)ethyl)piperidin-1-yl)azetidin-1-yl)phenyl)amino)piperidine-2,6-dione] is under 30 nM. To `O=C1CCC(Nc2ccc(N3CCC4(CC3)CC(N3CCC(COc5cc(F)c6c(=O)[nH]c(CSC7CCOCC7)nc6c5)CC3)C4)cc2)C(=O)N1` (stereo not drawn) [Example 128] belongs under 30 nM.

With `O=C1CCC(Nc2ccc(N3CCN(CCN4CCC(CNc5cc6nc(CSC7CCOCC7)[nH]c(=O)c6c(F)c5F)CC4)CC3)cc2)C(=O)N1` (stereo not drawn) [Example 129, 3-((4-(4-(2-(4-(((5,6-difluoro-4-oxo-2-(((tetrahydro-2H-pyran-4-yl)thio)methyl)-3,4-dihydroquinazolin-7-yl)amino)methyl)piperidin-1-yl)ethyl)piperazin-1-yl)phenyl)amino)piperidine-2,6-dione formate], the DC50 is under 30 nM.
